Experimental data taken from patent US20230085307A1, “PYRIDAZINONE COMPOUND AND HERBICIDE” (NISSAN CHEMICAL CORPORATION, priority 2019, published 2023).

What was measured:
[1] = tested on: southern crabgrass; experiment: Test Example 5: herbicidal effect by foliage application, plastic box (Table 20, symbol F); format: in vivo, southern crabgrass (Digitaria ciliaris); conditions: foliage application, 320 g/ha, three weeks after application
Method in brief: (§1)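 Plants were sown into sterilized diluvial soil under about 1.5 cm cover and kept in a greenhouse at 25° C. to 30° C. Fourteen days on, foliage received an even spray of the diluted emulsion. Herbicidal or crop effect was judged three weeks afterwards.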

[2] = tested on: barnyard grass; experiment: Test Example 3: herbicidal effect by foliage application, Wagner pot (Table 18, symbol H); format: in vivo, barnyard grass (Echinochloa crus-galli); conditions: amount of applied herbicide 320 g/ha
Method in brief: (§2)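 Plants were sown in alluvial soil held under 0.1–0.5 cm standing water and grown 14 days in a greenhouse at 25–30 °C. An emulsifiable formulation, water-diluted to the set dose, was then sprayed onto the foliage, and effects were scored three weeks later using previously defined criteria.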

[3] = tested on: Chinese sprangletop; experiment: Test Example 3: herbicidal effect by foliage application, Wagner pot (Table 18, symbol D); format: in vivo, chinese sprangletop (Leptochloa chinensis); conditions: amount of applied herbicide 320 g/ha
Method in brief: as §2

[4] = tested on: rice flat sedge; experiment: Test Example 3: herbicidal effect by foliage application, Wagner pot (Table 18, symbol E); format: in vivo, rice flat sedge (Cyperus iria); conditions: amount of applied herbicide 320 g/ha
Method in brief: as §2

[5] = tested on: redroot pigweed; experiment: Test Example 5: herbicidal effect by foliage application, plastic box (Table 20, symbol N); format: in vivo, redroot pigweed (Amaranthus retroflexus); conditions: foliage application, 320 g/ha, three weeks after application
Source text: [Test Example 5] Herbicidal Effect Test by Foliage Application
(§3) Sterilized diluvial soil was placed in a plastic box having a length of 21 cm, a width of 13 cm, and a depth of 7 cm. The seeds of each of southern crabgrass, green foxtail, barnyard grass, wild oat, blackgrass, Italian ryegrass, windgrass, velvetleaf, redroot pigweed, lambsquarters, chickweed, false cleavers, persian speedwell, corn, soybean, rice, wheat, beet, and rapeseed were sowed in a spot-like manner and covered with the soil having a thickness of about 1.5 cm. Thereafter, the plants were grown in a greenhouse at 25° C. to 30° C. After 14-day growth of the plants, the emulsion agent of the compound of the present invention prepared according to Formulation Example 2 was diluted with water so as to achieve a predetermined herbicide amount, and the diluted emulsion agent was uniformly applied to a foliage part with a small-sized spray. Three weeks after the herbicide application, the effect of the herbicide on each plant was evaluated according to the criteria of Test Example 1.

[6] = tested on: barnyard grass; experiment: Test Example 5: herbicidal effect by foliage application, plastic box (Table 20, symbol H); format: in vivo, barnyard grass (Echinochloa crus-galli); conditions: foliage application, 320 g/ha, three weeks after application
Method in brief: as §1

[7] = tested on: barnyard grass; experiment: Test Example 4: herbicidal effect by soil treatment (Table 19, symbol H); format: in vivo, barnyard grass (Echinochloa crus-galli); conditions: amount of applied herbicide 320 g/ha
Source text: (§4) [Test Example 4] Herbicidal Effect Test by Soil Treatment
as §3, with “Subsequently,” for “Thereafter, the plants were grown in a greenhouse at 25° C. to 30° C. After 14-day growth of the plants,”, “the surface of the soil” for “a foliage part”, “spray. The plastic box was placed in a greenhouse at 25° C. to 30° C. for growth of the plants.” for “spray.”

[8] = tested on: southern crabgrass; experiment: Test Example 4: herbicidal effect by soil treatment (Table 19, symbol F); format: in vivo, southern crabgrass (Digitaria ciliaris); conditions: amount of applied herbicide 320 g/ha
Source text: as §4
as §3, with “Subsequently,” for “Thereafter, the plants were grown in a greenhouse at 25° C. to 30° C. After 14-day growth of the plants,”, “the surface of the soil” for “a foliage part”, “spray. The plastic box was placed in a greenhouse at 25° C. to 30° C. for growth of the plants.” for “spray.”

[9] = tested on: green foxtail; experiment: Test Example 5: herbicidal effect by foliage application, plastic box (Table 20, symbol G); format: in vivo, green foxtail (Setaria viridis); conditions: foliage application, 320 g/ha, three weeks after application
Method in brief: as §1

[10] = tested on: velvetleaf; experiment: Test Example 5: herbicidal effect by foliage application, plastic box (Table 20, symbol M); format: in vivo, velvetleaf (Abutilon theophrasti); conditions: foliage application, 320 g/ha, three weeks after application
Method in brief: as §1

[11] = tested on: redroot pigweed; experiment: Test Example 4: herbicidal effect by soil treatment (Table 19, symbol N); format: in vivo, redroot pigweed (Amaranthus retroflexus); conditions: amount of applied herbicide 320 g/ha
Source text: as §4
as §3, with “Subsequently,” for “Thereafter, the plants were grown in a greenhouse at 25° C. to 30° C. After 14-day growth of the plants,”, “the surface of the soil” for “a foliage part”, “spray. The plastic box was placed in a greenhouse at 25° C. to 30° C. for growth of the plants.” for “spray.”

[12] = tested on: velvetleaf; experiment: Test Example 4: herbicidal effect by soil treatment (Table 19, symbol M); format: in vivo, velvetleaf (Abutilon theophrasti); conditions: amount of applied herbicide 320 g/ha
Source text: as §4
as §3, with “Subsequently,” for “Thereafter, the plants were grown in a greenhouse at 25° C. to 30° C. After 14-day growth of the plants,”, “the surface of the soil” for “a foliage part”, “spray. The plastic box was placed in a greenhouse at 25° C. to 30° C. for growth of the plants.” for “spray.”

[13] = tested on: green foxtail; experiment: Test Example 4: herbicidal effect by soil treatment (Table 19, symbol G); format: in vivo, green foxtail (Setaria viridis); conditions: amount of applied herbicide 320 g/ha
Source text: as §4
as §3, with “Subsequently,” for “Thereafter, the plants were grown in a greenhouse at 25° C. to 30° C. After 14-day growth of the plants,”, “the surface of the soil” for “a foliage part”, “spray. The plastic box was placed in a greenhouse at 25° C. to 30° C. for growth of the plants.” for “spray.”

[14] = tested on: lambsquarters; experiment: Test Example 4: herbicidal effect by soil treatment (Table 19, symbol O); format: in vivo, lambsquarters (Chenopodium album); conditions: amount of applied herbicide 320 g/ha
Source text: as §4
as §3, with “Subsequently,” for “Thereafter, the plants were grown in a greenhouse at 25° C. to 30° C. After 14-day growth of the plants,”, “the surface of the soil” for “a foliage part”, “spray. The plastic box was placed in a greenhouse at 25° C. to 30° C. for growth of the plants.” for “spray.”

[15] = tested on: lambsquarters; experiment: Test Example 5: herbicidal effect by foliage application, plastic box (Table 20, symbol O); format: in vivo, lambsquarters (Chenopodium album); conditions: foliage application, 320 g/ha, three weeks after application
Method in brief: as §1

Row | SMILES | F: southern crabgrass, herbicidal effect grade [1] | herbicidal effect on H: barnyard grass [2] | herbicidal effect on D: Chinese sprangletop [3] | herbicidal effect on E: rice flat sedge [4] | N: redroot pigweed, herbicidal effect grade [5] | H: barnyard grass, herbicidal effect grade [6] | herbicidal effect, H: barnyard grass [7] | herbicidal effect, F: southern crabgrass [8] | G: green foxtail, herbicidal effect grade [9] | M: velvetleaf, herbicidal effect grade [10] | herbicidal effect, N: redroot pigweed [11] | herbicidal effect, M: velvetleaf [12] | herbicidal effect, G: green foxtail [13] | herbicidal effect, O: lambsquarters [14] | O: lambsquarters, herbicidal effect grade [15]
1 | CC(CSc1ccc(-c2sc3ccc(F)cc3c2-c2c(O)c(C)nn(C)c2=O)cc1)=NO [2-452] | 3 (Herbicidal rate of 40% or more and less than 70%) | 5 (Herbicidal rate of 90% or more (almost completely withered)) | 0 (Herbicidal rate of 5% or less (almost no effect)) | 5 (Herbicidal rate of 90% or more (almost completely withered)) | 5 (Herbicidal rate of 90% or more (almost completely withered)) | 5 (Herbicidal rate of 90% or more (almost completely withered)) | 0 (Herbicidal rate of 5% or less (almost no effect)) | 0 (Herbicidal rate of 5% or less (almost no effect)) | 5 (Herbicidal rate of 90% or more (almost completely withered)) | 5 (Herbicidal rate of 90% or more (almost completely withered)) | 5 (Herbicidal rate of 90% or more (almost completely withered)) | 0 (Herbicidal rate of 5% or less (almost no effect)) | 0 (Herbicidal rate of 5% or less (almost no effect)) | 4 (Herbicidal rate of 70% or more and less than 90%) | 5 (Herbicidal rate of 90% or more (almost completely withered))
2 | Cc1nn(C)c(=O)c(-c2c(-c3ccc(OC(F)(F)F)cc3)sc3ccc(Cl)cc23)c1O [2-457] | 3 (Herbicidal rate of 40% or more and less than 70%) | 5 (Herbicidal rate of 90% or more (almost completely withered)) | 3 (Herbicidal rate of 40% or more and less than 70%) | 5 (Herbicidal rate of 90% or more (almost completely withered)) | 4 (Herbicidal rate of 70% or more and less than 90%) | 5 (Herbicidal rate of 90% or more (almost completely withered)) | 0 (Herbicidal rate of 5% or less (almost no effect)) | 0 (Herbicidal rate of 5% or less (almost no effect)) | 3 (Herbicidal rate of 40% or more and less than 70%) | 3 (Herbicidal rate of 40% or more and less than 70%) | 3 (Herbicidal rate of 40% or more and less than 70%) | 1 (Herbicidal rate of 5% or more and less than 20%) | 0 (Herbicidal rate of 5% or less (almost no effect)) | 2 (Herbicidal rate of 20% or more and less than 40%) | 5 (Herbicidal rate of 90% or more (almost completely withered))
